Assays:
Assay type in all cases: cell-based
[1] = target: T1, dopamine transporter (DAT) (Homo sapiens, UniProt Q01959); test: Dopamine reuptake inhibition, [3H]-DA, HEK-293 cells transfected with dopamine transporter cDNA; conditions: for Triple reuptake inhibition (Ratio %) DAT: compound 1 μM, 20-30 nM [3H]-DA, relative to control without compound = 100%, lower value = more inhibition; for IC50: concentration at which Ratio % is 50%, 6 concentrations 1 nM to 1 μM, read-out: Triple reuptake inhibition (IC50, μM) DAT
T1 construct: expressed in transfected cells; host or cells: HEK-293
Method: (§1) In order to evaluate the reuptake inhibitory effect of the compounds of the Examples according to the present invention on serotonin, norepinephrine and dopamine, the experiments below were performed, and the results are shown in Table 17.
(§2) To evaluate the reuptake inhibition effect on dopamine, the dopamine transporter cDNA was transfected using the HEK-293 cell line, and then sub-seeded in a 24 well plate the next day. After removing the medium, each compound of the Examples or Comparative Examples diluted to 1 μM in uptake buffer was added to a concentration of 200 μl/well and cultured at 37° C. for 15 minutes. 100 μl of uptake buffer containing 20-30 nM [3H]-DA was added and cultured at 37° C. for 5 minutes. The reaction solution was quickly removed and washed three times with 1 ml ice-cold uptake buffer. After dissolving the resultant in 1% SDS (0.5 ml), the degree of binding of radioisotope-labeled dopamine to the transporter was measured.
(§3) In addition, when evaluating the reuptake inhibitory effect on dopamine, norepinephrine, and serotonin, the same method was performed without treating each compound of the Examples or Comparative Examples as a control, the degree of binding of radioisotope-labeled dopamine, norepinephrine, and serotonin to the transporter was measured, and by using this as a reference (100%), the triple reuptake inhibitory effect was evaluated as a relative ratio (Ratio %). That is, in the control group, the binding of dopamine, norepinephrine, and serotonin to transporters is not inhibited, but when each compound of the Examples is treated and thus the binding is inhibited, the Ratio % value decreases.
(§4) Meanwhile, the Ratio % values were compared, and in the case of the compounds of Examples 6, 10, 13, 14, 17, 20, 21, 22, 30, 31, 32, 34, 36, 38, 39, 40, 54, 55, 56, 57, 58 and 73 with excellent reuptake inhibitory effects on dopamine, norepinephrine and serotonin, the concentration at which the Ratio % is 50% was calculated using a total of 6 concentrations (1 nM, 5 nM, 10 nM, 50 nM, 100 nM, and 1 μM) and expressed as IC50.

[2] = target: T2, serotonin transporter (SERT) (Homo sapiens, UniProt P31645); test: Serotonin reuptake inhibition, [3H]-5-HT, HEK-293 cells transfected with 5-HT transporter cDNA; conditions: for Triple reuptake inhibition (Ratio %) SERT: compound 1 μM, [3H]-5-HT, relative to control without compound = 100%, lower value = more inhibition; for IC50: concentration at which Ratio % is 50%, 6 concentrations 1 nM to 1 μM, read-out: Triple reuptake inhibition (IC50, μM) SERT
T2 construct: expressed in transfected cells; host or cells: HEK-293
Method: as §1, §2
(§5) For norepinephrine (NE) and serotonin (5-HT), the degree of binding of radioisotope-labeled norepinephrine or serotonin to the transporter was measured in the same manner as above, except that cells transfected with NE or 5-HT transporter cDNA were used and [3H]—NE or [3H]-5-HT was used as a substrate.
as §3, §4

[3] = target: T3, norepinephrine transporter (NET) (Homo sapiens, UniProt P23975); test: Norepinephrine reuptake inhibition, [3H]-NE, HEK-293 cells transfected with NE transporter cDNA; conditions: for Triple reuptake inhibition (Ratio %) NET: compound 1 μM, [3H]-NE, relative to control without compound = 100%, lower value = more inhibition; for IC50: concentration at which Ratio % is 50%, 6 concentrations 1 nM to 1 μM, read-out: Triple reuptake inhibition (IC50, μM) NET
T3 construct: expressed in transfected cells; host or cells: HEK-293
Method: as §1, §2, §5, §3, §4

T2 sequence (P31645 whole entry, species assumed): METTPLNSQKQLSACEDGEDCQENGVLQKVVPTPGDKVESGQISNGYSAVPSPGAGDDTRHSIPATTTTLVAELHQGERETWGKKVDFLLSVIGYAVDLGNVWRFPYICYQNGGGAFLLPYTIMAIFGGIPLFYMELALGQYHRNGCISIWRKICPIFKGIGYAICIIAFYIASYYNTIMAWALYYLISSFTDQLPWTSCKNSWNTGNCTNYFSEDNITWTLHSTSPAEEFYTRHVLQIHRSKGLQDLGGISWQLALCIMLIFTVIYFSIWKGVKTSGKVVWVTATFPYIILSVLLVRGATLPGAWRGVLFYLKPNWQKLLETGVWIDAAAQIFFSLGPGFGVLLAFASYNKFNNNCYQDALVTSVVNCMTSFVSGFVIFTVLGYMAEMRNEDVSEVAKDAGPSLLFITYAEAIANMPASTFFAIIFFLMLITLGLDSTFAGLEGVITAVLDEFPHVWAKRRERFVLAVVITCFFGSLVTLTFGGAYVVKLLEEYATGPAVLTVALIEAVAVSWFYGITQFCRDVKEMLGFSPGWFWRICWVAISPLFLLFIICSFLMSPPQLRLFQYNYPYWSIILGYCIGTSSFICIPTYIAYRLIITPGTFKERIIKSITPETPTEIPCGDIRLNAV
T1 sequence (Q01959 whole entry, species assumed): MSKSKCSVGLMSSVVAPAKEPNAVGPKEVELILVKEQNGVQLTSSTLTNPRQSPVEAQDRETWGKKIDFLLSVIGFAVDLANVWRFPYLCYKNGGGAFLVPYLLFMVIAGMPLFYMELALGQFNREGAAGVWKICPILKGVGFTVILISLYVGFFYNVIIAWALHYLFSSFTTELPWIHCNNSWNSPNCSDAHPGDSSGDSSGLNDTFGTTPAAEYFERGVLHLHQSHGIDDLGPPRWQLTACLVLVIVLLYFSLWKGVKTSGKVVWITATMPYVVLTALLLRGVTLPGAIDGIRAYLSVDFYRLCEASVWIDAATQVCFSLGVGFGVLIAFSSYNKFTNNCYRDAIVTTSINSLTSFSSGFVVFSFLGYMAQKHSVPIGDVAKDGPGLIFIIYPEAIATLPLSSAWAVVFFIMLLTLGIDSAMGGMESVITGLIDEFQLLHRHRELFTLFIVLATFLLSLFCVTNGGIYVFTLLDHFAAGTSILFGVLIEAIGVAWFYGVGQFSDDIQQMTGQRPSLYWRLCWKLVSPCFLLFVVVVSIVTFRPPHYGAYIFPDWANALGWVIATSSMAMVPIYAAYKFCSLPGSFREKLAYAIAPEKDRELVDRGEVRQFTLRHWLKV
T3 sequence (P23975 whole entry, species assumed): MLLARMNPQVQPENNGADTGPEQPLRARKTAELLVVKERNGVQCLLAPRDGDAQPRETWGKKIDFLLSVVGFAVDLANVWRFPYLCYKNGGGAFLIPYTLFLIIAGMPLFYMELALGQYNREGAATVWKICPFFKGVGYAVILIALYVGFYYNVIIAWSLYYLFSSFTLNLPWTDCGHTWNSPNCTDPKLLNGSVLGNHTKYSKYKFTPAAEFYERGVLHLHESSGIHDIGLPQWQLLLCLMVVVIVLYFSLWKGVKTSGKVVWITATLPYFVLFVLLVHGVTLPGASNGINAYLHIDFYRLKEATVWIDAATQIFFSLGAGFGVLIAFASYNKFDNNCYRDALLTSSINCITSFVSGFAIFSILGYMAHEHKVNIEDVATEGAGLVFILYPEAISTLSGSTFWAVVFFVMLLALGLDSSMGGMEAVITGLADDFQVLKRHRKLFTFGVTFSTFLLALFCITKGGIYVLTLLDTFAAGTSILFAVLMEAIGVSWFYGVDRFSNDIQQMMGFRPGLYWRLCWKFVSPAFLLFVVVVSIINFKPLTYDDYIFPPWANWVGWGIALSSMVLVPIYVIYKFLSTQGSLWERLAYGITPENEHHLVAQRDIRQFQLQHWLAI

| Triple reuptake inhibition (Ratio %) DAT [1] [%] | Triple reuptake inhibition (Ratio %) SERT [2] [%] | Triple reuptake inhibition (Ratio %) NET [3] [%] | IC50 [1] [µM] | IC50 [2] [µM] | IC50 [3] [µM] | SMILES |
| --- | --- | --- | --- | --- | --- | --- |
| 25.52 | 32.90 | 44.79 |  |  |  | O=S(=O)(NCCCCN1CCN(CCCc2ccccc2)CC1)c1ccc(-c2ccccc2)cc1 [Example 78, N-(4-(4-(3-phenylpropyl)piperazin-1-yl)butyl)-[1,1′-biphenyl]-4-sulfonamide] |
| 29.62 | 30.78 | 44.79 |  |  |  | COc1ccc(-c2ccc(S(=O)(=O)NCCCN3CCC(Cc4ccccc4)CC3)cc2)cc1 [Example 61, N-(3-(4-benzylpiperidin-1-yl)propyl)-4′-methoxy-[1,1′-biphenyl]-4-sulfonamide] |
| 83.08 | 49.64 | 87.27 |  |  |  | O=S(=O)(NCCCN1CCN(Cc2ccccc2)CC1)c1cccc2ccccc12 [Example 67] |
| 35.21 | 46.18 | 31.83 | 1.55 | 1.45 | 1.3 | O=S(=O)(NCCCN1CCC(Cc2ccccc2)CC1)c1cccc2ccccc12 [Example 55, N-(3-(4-benzylpiperidin-1-yl)propyl)naphthalen-1-sulfonamide] |
| 68.53 | 47.19 | 64.45 |  |  |  | O=S(=O)(NCCN1CCN(c2ccc(Cl)cc2)CC1)c1cccc2ccccc12 [Example 51, N-(2-(4-(4-chlorophenyl)piperazinyl)ethyl)naphthalen-1-sulfonamide] |
| 68.53 | 47.19 | 64.45 |  |  |  | O=S(=O)(NCCCN1CCN(c2ccc(Cl)cc2)CC1)c1ccc(-c2ccccc2)cc1 [Example 72, N-(3-(4-(4-chlorophenyl)piperazin-1-yl)propyl)-[1,1′-biphenyl]-4-sulfonamide] |
| 68.53 | 47.19 | 64.45 |  |  |  | O=S(=O)(NCCN1CCN(c2ccc(Cl)cc2)CC1)c1ccc2ccccc2n1 [Example 53, N-(2-(4-(4-chlorophenyl)piperazinyl)ethyl)quinolin-2-sulfonamide] |
| 61.90 | 56.50 | 68.65 | 0.42 | 0.75 | 0.641 | O=S(=O)(NCCCN1CCC(Cc2ccccc2)CC1)c1ccc(-c2ccccc2)cc1 [Example 56, N-(3-(4-benzylpiperidin-1-yl)propyl)-[1,1′-biphenyl]-4-sulfonamide] |
| 83.08 | 49.64 | 87.27 |  |  |  | O=S(=O)(NCCN1CCN(Cc2ccccc2)CC1)c1cccc2ccccc12 [Example 47, N-(2-(4-benzylpiperazin-1-yl)ethyl)naphthalen-1-sulfonamide] |

The remaining lines, values behind:

| SMILES | Triple reuptake inhibition (Ratio %) DAT [1] [%] | Triple reuptake inhibition (Ratio %) SERT [2] [%] | Triple reuptake inhibition (Ratio %) NET [3] [%] | IC50 [1] [µM] | IC50 [2] [µM] | IC50 [3] [µM] |
| --- | --- | --- | --- | --- | --- | --- |
| CCCCOc1ccc(S(=O)(=O)NCCCN2CCC(Cc3ccc(C)cc3)CC2)cc1 [Example 29, 4-butoxy-N-(3-(4-(4-methylbenzyl)piperidin-1-yl)propyl)benzenesulfonamide] | 89.50 | 39.39 | 54.04 |  |  |  |
| CCCCOc1ccc(S(=O)(=O)NCCN2CCC(c3c[nH]c4ccc(OC)cc34)CC2)cc1 [Example 8, 4-butoxy-N-(2-(4-(5-methoxy-1H-indol-3-yl)piperidin-1-yl)ethyl)benzenesulfonamide] | 90.67 | 98.57 | 79.30 |  |  |  |
| CCCCOc1ccc(S(=O)(=O)N2CCC(CCc3ccccc3)CC2)cc1 [Example 9, 1-((4-butoxyphenyl)sulfonyl)-4-phenethylpiperidin] | 109.25 | 101.11 | 96.32 |  |  |  |
| CCCCOc1ccc(S(=O)(=O)N2CCC(c3c[nH]c4ccccc34)CC2)cc1 [Example 5, 3-(1-((4-butoxyphenyl)sulfonyl)piperidin-4-yl)-1H-indole] | 100.55 | 106.55 | 94.03 |  |  |  |
| O=S(=O)(NCCCN1CCC(Cc2ccccc2)CC1)c1ccc(OC(F)(F)F)cc1 [Example 34, N-(3-(4-benzylpiperidin-1-yl)propyl)-4-(trifluoromethoxy)benzenesulfonamide] | 16.35 | 57.25 | 20.03 | 0.942 | 2.59 | 0.612 |
| CCCCOc1ccc(S(=O)(=O)NCCCN2CCN(c3ccc(Cl)c(Cl)c3)CC2)cc1 [Example 23, 4-butoxy-N-(3-(4-(3,4-dichlorophenyl)piperazin-1-yl)propyl)benzenesulfonamide] | 99.56 | 41.32 | 83.63 |  |  |  |
| CCCCOc1ccc(S(=O)(=O)NCCCN2CCC(Cc3ccccc3)CC2)cc1 [Example 10, N-(3-(4-benzylpiperidin-1-yl)propyl)-4-butoxybenzenesulfonamide] | 41.80 | 24.45 | 13.02 | 0.612 | 0.483 | 0.168 |
| CCCCOc1ccc(S(=O)(=O)NCCCN2CCC(c3ccc(Cl)c(Cl)c3)CC2)cc1 [Example 22, 4-butoxy-N-(3-(4-(3,4-dichlorophenyl)piperidinyl)propyl)benzenesulfonamide] | 31.02 | 38.07 | 36.85 | 1.51 | 0.609 | 0.55 |
| CCCCOc1ccc(S(=O)(=O)NCCCN2CCC(Cc3ccccc3)CC2)nc1 [Example 35, N-(3-(4-benzylpiperidinyl)propyl)-5-butoxypyridin-2-sulfonamide] | 16.12 | 53.08 | 51.99 |  |  |  |
| O=S(=O)(NCCCN1CCC(CCCc2ccccc2)CC1)c1ccc(-c2ccccc2)cc1 [Example 75, N-(3-(4-(3-phenylpropyl)piperidin-1-yl)propyl)-[1,1′-biphenyl]-4-sulfonamide] | 76.23 | 61.48 | 44.79 |  |  |  |
| O=S(=O)(NCCCCN1CCC(Cc2ccccc2)CC1)c1ccc(-c2ccccc2)cc1 [Example 77, N-(4-(4-benzylpiperidin-1-yl)butyl)-[1,1′-biphenyl]-4-sulfonamide] | 25.71 | 40.45 | 44.79 |  |  |  |
| O=S(=O)(NCCCN1CCC(Cc2ccccc2)CC1)c1ccc(Oc2ccccc2)cc1 [Example 13, N-(3-(4-benzylpiperidin-1-yl)propyl)-4-phenoxybenzenesulfonamide] | 25.55 | 41.46 | 11.04 | 0.872 | 1.08 | 0.112 |
